# According to patent publication US20110160167A1, “Steroid Derivatives Acting As Glucocorticosteroid Receptor Agonists” (AstraZeneca AB, priority 2007, published 2011):
# Biological target: T1, recombinant human GR (Homo sapiens, UniProt P04150)
# T1 construct: purchased Panvera/Invitrogen P2812 (kit P2893)
# T1 sequence (P04150 1-777): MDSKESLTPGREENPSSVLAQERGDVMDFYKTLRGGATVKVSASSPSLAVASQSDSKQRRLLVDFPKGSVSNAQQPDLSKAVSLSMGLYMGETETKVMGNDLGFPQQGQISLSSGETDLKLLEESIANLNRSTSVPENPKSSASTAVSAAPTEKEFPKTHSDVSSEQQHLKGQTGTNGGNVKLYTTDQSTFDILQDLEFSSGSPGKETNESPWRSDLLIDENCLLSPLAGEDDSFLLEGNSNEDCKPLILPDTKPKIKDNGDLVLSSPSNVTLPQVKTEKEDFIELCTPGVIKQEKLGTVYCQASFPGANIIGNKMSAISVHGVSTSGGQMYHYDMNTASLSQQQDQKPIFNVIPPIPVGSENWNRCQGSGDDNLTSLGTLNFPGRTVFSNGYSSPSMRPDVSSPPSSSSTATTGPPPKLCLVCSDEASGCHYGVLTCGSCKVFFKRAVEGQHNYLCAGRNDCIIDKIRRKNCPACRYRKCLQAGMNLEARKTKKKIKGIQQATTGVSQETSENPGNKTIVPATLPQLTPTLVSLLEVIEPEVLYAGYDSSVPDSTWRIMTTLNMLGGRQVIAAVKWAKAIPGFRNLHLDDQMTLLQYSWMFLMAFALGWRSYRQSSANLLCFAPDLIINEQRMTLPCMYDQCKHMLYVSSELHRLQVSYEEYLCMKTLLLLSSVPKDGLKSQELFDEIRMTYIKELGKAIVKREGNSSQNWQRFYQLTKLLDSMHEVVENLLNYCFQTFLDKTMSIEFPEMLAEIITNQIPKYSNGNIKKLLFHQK
# Experiment: Human Glucocorticoid Receptor (GR) Assay (fluorescence polarization, Panvera/Invitrogen kit)
# Conditions: GS Red tracer, 2 hours at room temperature, 100% control 10 μM Dexamethasone, read-out: Inhibition of GR binding, IC50
# Method: Human Glucocorticoid Receptor (GR) Assay The assay is based on a commercial kit from Panvera/Invitrogen (Part number P2893). The assay technology is fluorescence polarization. The kit utilises recombinant human GR (Panvera, Part number P2812), a Fluoromone™ labelled tracer (GS Red, Panvera, Part number P2894) and a Stabilizing Peptide 10× (Panvera, Part number P2815). The GR and Stabilizing Peptide reagents are stored at −70° C. while the GS Red is stored at −20° C. Also included in the kit are 1M DTT (Panvera, Part number P2325, stored at −20° C.) and GR Screening buffer 10× (Panvera, Part number P2814, stored at −70° C. initially but once thawed stored at room temperature). Avoid repeated freeze/thaws for all reagents. The GR Screening buffer 10× comprises 100 mM potassium phosphate, 200 mM sodium molybdate, 1 mM EDTA and 20% DMSO. Test compounds (1 μL) and controls (1 μL) in 100% DMSO were added to black polystyrene 384-well plates (Greiner low volume black flat-bottom, part number 784076). 0% control was 100% DMSO and 100% control was 10 μM Dexamethasone. Background solution (8 μL; assay buffer 10×, Stabilizing Peptide, DTT and ice cold MQ water) was added to the background wells. GS Red solution (7 μL; assay buffer 10×, Stabilizing Peptide, DTT, GS Red and ice cold water) was added to all wells except background wells. GR solution (7 μL; assay buffer 10×, Stabilizing Peptide, DTT, GR and ice cold water) was added to all wells. The plate was sealed and incubated in a dark at room temperature for 2 hours. The plate was read in an Analyst plate reader (LJL Biosystems/Molecular Devices Corporation) or other similar plate reader capable of recording fluorescence polarization (excitation wavelength 530 nm, emission wavelength 590 nm and a dichroic mirror at 561 nm).
row,IC50,SMILES
1,8 nM,"CCC[C@@H]1O[C@@H]2C[C@H]3[C@@H]4CCC5=Cc6c(cnn6-c6ccc(F)c(CN7CCOCC7)c6)C[C@]5(C)[C@H]4[C@@H](O)C[C@]3(C)[C@]2(C(=O)CO)O1 [Example 1, 1-[(4aR,4bS,5S,6aS,6bS,8R,9aR,10aS,10bS)-1-[4-fluoro-3-(morpholin-4-ylmethyl)phenyl]-5-hydroxy-4a,6a-dimethyl-8-propyl-4,4a,4b,5,6,6a,9a,10,10a,10b,11,12-dodecahydro[1,3]-dioxolo[3′,4′]cyclopenta-[1′,2′:5,6]naphtho[1,2-f]indazol-6b(1H)-yl]-2-hydroxyethanone trifluoroacetic acid]"
2,8.7 nM,CCC[C@H]1O[C@@H]2C[C@H]3[C@@H]4CCC5=Cc6c(cnn6-c6ccc(F)c(CN7CCOCC7)c6)C[C@]5(C)[C@H]4[C@@H](O)C[C@]3(C)[C@]2(C(=O)CO)O1 [Example 2]
3,37 nM,"CCC[C@@H]1O[C@@H]2C[C@H]3[C@@H]4CCC5=Cc6c(cnn6-c6ccc(F)c(CN7CCCC7)c6)C[C@]5(C)[C@H]4[C@@H](O)C[C@]3(C)[C@]2(C(=O)CO)O1 [Example 3, 1-[(4aR,4bS,5S,6aS,6bS, 8R,9aR,10aS,10bS)-1-[4-fluoro-3-(pyrrolidin-1-ylmethyl)phenyl]-5-hydroxy-4a,6a-dimethyl-8-propyl-4,4a,4b,5,6,6a,9a,10, 10a,10b,11,12-dodecahydro[1,3]dioxolo [3′,4′]cyclopenta [1′,2′:5,6]naphtho[1,2-f]indazol-6b(1H)-yl]-2-hydroxyethanone]"
4,21 nM,"CCC[C@@H]1O[C@@H]2C[C@H]3[C@@H]4CCC5=Cc6c(cnn6-c6ccc(F)c(CN7CCN(C)CC7)c6)C[C@]5(C)[C@H]4[C@@H](O)C[C@]3(C)[C@]2(C(=O)CO)O1 [Example 4, 1-[(4aR,4bS,5S,6aS,6bS, 8R,9aR,10aS,10bS)-1-{4-fluoro-3-[(4-methylpiperazin-1-yl)methyl]phenyl}-5-hydroxy-4a,6a-dimethyl-8-propyl-4,4a,4b,5,6,6a,9a,10, 10a,10b,11,12-dodecahydro[1,3]dioxolo [3′,4′]cyclopenta [1′,2′:5,6]naphtho[1,2-f]indazol-6b(1H)-yl]-2-hydroxyethanone trifluoroacetic acid]"
5,77 nM,"CCC[C@H]1O[C@@H]2C[C@H]3[C@@H]4CCC5=Cc6c(cnn6-c6ccc(F)c(CN7CCN(C)CC7)c6)C[C@]5(C)[C@H]4[C@@H](O)C[C@]3(C)[C@]2(C(=O)CO)O1 [Example 5, 1-[(4aR,4bS,5S,6aS,6bS, 8S,9aR,10aS,10bS)-1-{4-fluoro-3-[(4-methylpiperazin-1-yl)methyl]phenyl}-5-hydroxy-4a,6a-dimethyl-8-propyl-4,4a,4b,5,6,6a,9a,10, 10a,10b,11,12-dodecahydro[1,3]dioxolo [3′,4′]cyclopenta [1′,2′:5,6]naphtho[1,2-f]indazol-6b(1H)-yl]-2-hydroxyethanone trifluoroacetic acid]"
6,72 nM,"CCC[C@@H]1OC2C[C@H]3[C@@H]4CCC5=Cc6c(cnn6-c6ccc(F)c(CN(CC)CC)c6)C[C@]5(C)[C@H]4[C@@H](O)C[C@]3(C)[C@]2(C(=O)CO)O1 (stereo partly drawn) [Example 6, 1-[(4aR,4bS,5S,6aS,6bS, 8R,9aR,10aS,10bS)-1-{3-[(diethylamino)methyl]-4-fluorophenyl}-5-hydroxy-4a,6a-dimethyl-8-propyl-4,4a,4b,5,6,6a,9a,10, 10a,10b,11,12-dodecahydro[1,3]dioxolo [3′,4′]cyclopenta [1′,2′:5,6]naphtho[1,2-f]indazol-6b(1H)-yl]-2-hydroxyethanone]"
7,12 nM,"CCC[C@@H]1O[C@@H]2C[C@H]3[C@@H]4CCC5=Cc6c(cnn6-c6ccc(F)c(CN7CCSCC7)c6)C[C@]5(C)[C@H]4[C@@H](O)C[C@]3(C)[C@]2(C(=O)CO)O1 [Example 7, 1-[(4aR,4bS,5S,6aS,6bS, 8R,9aR,10aS,10bS)-1-[4-fluoro-3-(thiomorpholin-4-ylmethyl)phenyl]-5-hydroxy-4a,6a-dimethyl-8-propyl-4,4a,4b,5,6,6a,9a,10, 10a,10b,11,12-dodecahydro[1,3]dioxolo [3′,4′]cyclopenta [1′,2′:5,6]naphtho[1,2-f]indazol-6b(1H)-yl]-2-hydroxyethanone trifluoroacetic acid]"
8,16 nM,"CCC[C@H]1O[C@@H]2C[C@H]3[C@@H]4CCC5=Cc6c(cnn6-c6ccc(F)c(CN7CCSCC7)c6)C[C@]5(C)[C@H]4[C@@H](O)C[C@]3(C)[C@]2(C(=O)CO)O1 [Example 8, 1-[(4aR,4bS,5S,6aS,6bS, 8S,9aR,10aS,10bS)-1-[4-fluoro-3-(thiomorpholin-4-ylmethyl)phenyl]-5-hydroxy-4a,6a-dimethyl-8-propyl-4,4a,4b,5,6,6a,9a,10, 10a,10b,11,12-dodecahydro[1,3]dioxolo [3′,4′]cyclopenta [1′,2′:5,6]naphtho[1,2-f]indazol-6b(1H)-yl]-2-hydroxyethanone trifluoroacetic acid]"
9,21 nM,"CCC[C@@H]1O[C@@H]2C[C@H]3[C@@H]4CCC5=Cc6c(cnn6-c6ccc(F)c(CN7CCC(O)CC7)c6)C[C@]5(C)[C@H]4[C@@H](O)C[C@]3(C)[C@]2(C(=O)CO)O1 [Example 9, 1-[(4aR,4bS,5S,6aS,6bS, 8R,9aR,10aS,10bS)-1-{4-fluoro-3-[(4-hydroxypiperidin-1-yl)methyl]phenyl}-5-hydroxy-4a,6a-dimethyl-8-propyl-4,4a,4b,5,6,6a,9a,10, 10a,10b,11,12-dodecahydro[1,3]dioxolo [3′,4′]cyclopenta [1′,2′:5,6]naphtho[1,2-f]indazol-6b(1H)-yl]-2-hydroxyethanone trifluoroacetic acid]"
10,67 nM,"CCC[C@H]1O[C@@H]2C[C@H]3[C@@H]4CCC5=Cc6c(cnn6-c6ccc(F)c(CN7CCC(O)CC7)c6)C[C@]5(C)[C@H]4[C@@H](O)C[C@]3(C)[C@]2(C(=O)CO)O1 [Example 10, 1-[(4aR,4bS,5S,6aS,6bS, 8S,9aR,10aS,10bS)-1-{4-fluoro-3-[(4-hydroxypiperidin-1-yl)methyl]phenyl}-5-hydroxy-4a,6a-dimethyl-8-propyl-4,4a,4b,5,6,6a,9a,10, 10a,10b,11,12-dodecahydro[1,3]dioxolo [3′,4′]cyclopenta [1′,2′:5,6]naphtho[1,2-f]indazol-6b(1H)-yl]-2-hydroxyethanone trifluoroacetic acid]"
11,34 nM,"CCC[C@@H]1O[C@@H]2C[C@H]3[C@@H]4CCC5=Cc6c(cnn6-c6ccc(F)c(CNCCCO)c6)C[C@]5(C)[C@H]4[C@@H](O)C[C@]3(C)[C@]2(C(=O)CO)O1 [Example 11, 1-[(4aR,4bS,5S,6aS,6bS, 8R,9aR,10aS,10bS)-1-(4-fluoro-3-{[(3-hydroxypropyl)amino]methyl}phenyl)-5-hydroxy-4a,6a-dimethyl-8-propyl-4,4a,4b,5,6,6a,9a,10, 10a,10b,11,12-dodecahydro[1,3]dioxolo [3′,4′]cyclopenta [1′,2′:5,6]naphtho[1,2-f]indazol-6b(1H)-yl]-2-hydroxyethanone trifluoroacetic acid]"
12,76 nM,"CCC[C@H]1O[C@@H]2C[C@H]3[C@@H]4CCC5=Cc6c(cnn6-c6ccc(F)c(CNCCCO)c6)C[C@]5(C)[C@H]4[C@@H](O)C[C@]3(C)[C@]2(C(=O)CO)O1 [Example 12, 1-[(4aR,4bS,5S,6aS,6bS, 8S,9aR,10aS,10bS)-1-(4-fluoro-3-{[(3-hydroxypropyl)amino]methyl}phenyl)-5-hydroxy-4a,6a-dimethyl-8-propyl-4,4a,4b,5,6,6a,9a,10, 10a,10b,11,12-dodecahydro[1,3]dioxolo [3′,4′]cyclopenta [1′,2′:5,6]naphtho[1,2-f]indazol-6b(1H)-yl]-2-hydroxyethanone trifluoroacetic acid]"
